Test results: US10618918B2, “Substituted boronic acids as antimicrobials” (priority 2015, dated 2020)

How the values were obtained:
[1] = system: KP1004 KPC-2; assay: Aztreonam potentiation (MPC@4), strain KP1004 KPC-2
[2] = system: ec308 SHV-5; assay: Aztreonam potentiation (MPC@4), strain ec308 SHV-5; details: minimum BLI concentration inhibiting growth with aztreonam 4 μg/mL; tested up to 40 μg/mL
[3] = system: KP1004 KPC-2; assay: Biapenem potentiation (MPC@1), strain KP1004 KPC-2; assay type: cell-based; details: minimum BLI concentration inhibiting growth with biapenem 1 μg/mL; tested up to 40 μg/mL
Experimental: (§1) Biapenem was present in the test medium at 1 μg/mL. […] Table 3 summarizes the BLI potency of biapenem potentiation (MPC@1) for two strains overexpressing class A (KPC) and class D (OXA-48) carbapenemases. Biapenem MIC for each strain is also shown.

[4] = system: AB1053 OXA-72; assay: Meropenem potentiation (MPC@8), strain AB1053 OXA-72; assay type: cell-based, Acinetobacter baumannii; details: minimum BLI concentration inhibiting growth with meropenem 8 μg/mL; tested up to 20 μg/mL
[5] = system: KP1005 CTX-M-14; assay: Tigemonam potentiation (MPC@4), strain KP1005 CTX-M-14
[6] = system: KP1010 SHV-12; assay: Aztreonam potentiation (MPC@4), strain KP1010 SHV-12
[7] = system: PAM1154/KPC-2; assay: Biapenem potentiation MPC64 in PAM1154/KPC-2 (efflux deficient, lacks MexAB-OprM); assay type: cell-based, Pseudomonas aeruginosa
Experimental: (§2) Efflux of BLIs from Pseudomonas aeruginosa by the MexAB-OprM efflux pump was also evaluated. The plasmid expressing the gene encoding KPC-2 was introduced into two strains of P. aeruginosa, PAM1032 and PAM 1154 that overexpressed or lacked MexAB-OprM, respectively. […] Potency of BLIs to potentiate biapenem in these strains was determined.

[8] = system: ECL1002; assay: Aztreonam potentiation (MPC@4), strain ECL1002; details: minimum BLI concentration inhibiting growth with aztreonam 4 μg/mL; tested up to 40 μg/mL
[9] = system: ec302 TEM-10; assay: Aztreonam potentiation (MPC@4), strain ec302 TEM-10; details: minimum BLI concentration inhibiting growth with aztreonam 4 μg/mL; tested up to 40 μg/mL
[10] = system: KP1009 CTX-M-15; assay: Aztreonam potentiation (MPC@4), strain KP1009 CTX-M-15; details: minimum BLI concentration inhibiting growth with aztreonam 4 μg/mL; tested up to 40 μg/mL
[11] = system: PAM1032/KPC-2; assay: Biapenem potentiation MPC64 in PAM1032/KPC-2 (efflux proficient, overexpresses MexAB-OprM); assay type: cell-based, Pseudomonas aeruginosa
Experimental: as §2

[12] = target: T1, purified class A, C and D enzymes (β-lactamases) (UniProt P0AD64, L31Q/G234S/E235K, species not given); assay: biochemical; assay type: biochemical; details: read-out: Ki (SHV-12, NCF); purified SHV-12; nitrocefin (NCF) as reporter substrate
T1 construct: Ki (SHV-12, NCF), uM; other: purified SHV-12; nitrocefin (NCF) as reporter substrate
T1 sequence (P0AD64 1-286 L31Q/G234S/E235K): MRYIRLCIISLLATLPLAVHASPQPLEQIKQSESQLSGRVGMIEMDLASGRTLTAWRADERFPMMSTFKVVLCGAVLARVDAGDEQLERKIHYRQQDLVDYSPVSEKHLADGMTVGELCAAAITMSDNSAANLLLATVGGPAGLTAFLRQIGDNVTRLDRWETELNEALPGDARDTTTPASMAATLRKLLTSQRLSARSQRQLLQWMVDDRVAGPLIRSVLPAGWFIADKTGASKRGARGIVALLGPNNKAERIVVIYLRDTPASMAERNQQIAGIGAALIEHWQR

[13] = target: purified class A, C and D enzymes (β-lactamases) (Escherichia coli, UniProt Q9L5C7); assay: biochemical; assay type: biochemical
Chain of purified class A, C and D enzymes (β-lactamases) (Escherichia coli, UniProt Q9L5C7) (Q9L5C7 entry or part of it): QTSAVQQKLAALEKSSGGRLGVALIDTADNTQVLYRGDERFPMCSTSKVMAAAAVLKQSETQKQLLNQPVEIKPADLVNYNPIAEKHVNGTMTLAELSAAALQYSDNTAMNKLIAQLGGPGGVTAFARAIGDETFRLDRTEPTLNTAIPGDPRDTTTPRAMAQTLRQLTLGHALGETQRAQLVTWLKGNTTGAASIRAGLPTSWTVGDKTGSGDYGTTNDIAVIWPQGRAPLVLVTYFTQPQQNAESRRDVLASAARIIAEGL

[14] = target: T2, purified class A, C and D enzymes (β-lactamases) (Pseudomonas aeruginosa, UniProt P24735); assay: biochemical; assay type: biochemical
T2 construct: rows headed: Ki (Pa-AmpC, NCF), uM; other: purified Pa-AmpC; nitrocefin (NCF) as reporter substrate
T2 sequence (P24735 whole entry): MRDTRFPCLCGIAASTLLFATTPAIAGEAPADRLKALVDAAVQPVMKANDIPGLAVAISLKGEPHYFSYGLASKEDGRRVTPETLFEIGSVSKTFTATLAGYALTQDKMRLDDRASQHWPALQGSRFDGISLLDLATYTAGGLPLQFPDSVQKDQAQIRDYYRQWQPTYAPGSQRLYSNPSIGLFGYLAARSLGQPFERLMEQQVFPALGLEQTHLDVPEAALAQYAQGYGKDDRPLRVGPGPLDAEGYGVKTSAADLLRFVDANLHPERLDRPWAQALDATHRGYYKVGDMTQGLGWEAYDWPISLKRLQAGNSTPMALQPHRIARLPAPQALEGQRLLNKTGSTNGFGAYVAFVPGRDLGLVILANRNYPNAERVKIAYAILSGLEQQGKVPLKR

[15] = target: purified class A, C and D enzymes (β-lactamases) (Enterobacter cloacae, UniProt P05364); assay: biochemical; assay type: biochemical
Chain of purified class A, C and D enzymes (β-lactamases) (Enterobacter cloacae, UniProt P05364) (P05364 21-381): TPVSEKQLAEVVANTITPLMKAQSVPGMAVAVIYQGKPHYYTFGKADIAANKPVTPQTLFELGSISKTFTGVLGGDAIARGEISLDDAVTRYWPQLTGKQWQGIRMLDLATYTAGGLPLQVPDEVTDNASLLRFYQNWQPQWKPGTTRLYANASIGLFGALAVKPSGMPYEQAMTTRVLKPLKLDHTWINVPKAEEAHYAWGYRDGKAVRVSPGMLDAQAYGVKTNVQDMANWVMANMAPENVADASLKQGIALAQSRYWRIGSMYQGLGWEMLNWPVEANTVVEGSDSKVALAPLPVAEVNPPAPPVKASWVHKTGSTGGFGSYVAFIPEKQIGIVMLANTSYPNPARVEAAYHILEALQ

[16] = target: purified class A, C and D enzymes (β-lactamases) (Klebsiella pneumoniae, UniProt Q9F663); assay: biochemical; assay type: biochemical
[17] = biochemical; assay type: biochemical
[18] = target: purified class A, C and D enzymes (β-lactamases) (Klebsiella pneumoniae, UniProt Q6XEC0); assay: biochemical; assay type: biochemical
[19] = system: EC1010 CMY-6; assay: Aztreonam potentiation (MPC@4), strain EC1010 CMY-6
[20] = system: AB1054 OXA-23; assay: Meropenem potentiation (MPC@8), strain AB1054 OXA-23; assay type: cell-based, Acinetobacter baumannii
[21] = system: KP1086 OXA-48; assay: Biapenem potentiation (MPC@1), strain KP1086 OXA-48; assay type: cell-based; details: minimum BLI concentration inhibiting growth with biapenem 1 μg/mL; tested up to 40 μg/mL
Experimental: as §1

| Compound | AZT MPC4 KPC-2 KP1004 [1] | AZT MPC4 SHV-5 ec308 [2] | BPM MPC1 KP1004 KPC-2 [3] | MPM MPC8 AB1053 OXA-72 [4] | TIG MPC4 CTX-M-14 KP1005 [5] | AZT MPC4 SHV-12 KP1010 [6] | PAM1154/KPC-2 Biapenem MPC64 [7] | AZT MPC4 ECL1002 [8] | AZT MPC4 TEM-10 ec302 [9] | AZT MPC4 CTX-M-15 KP1009 [10] | PAM1032/KPC-2 Biapenem MPC64 [11] | Ki (CTX-M-14, NCF), uM [13] | Ki [14] [nM] | Ki (P99, NCF), uM [15] | Ki (KPC-2, NCF), uM [16] | Ki [17] [nM] | Ki (OXA-48, NCF), uM [18] | AZT MPC4 CMY-6 EC1010 [19] | MPM MPC8 AB1054 OXA-23 [20] | BPM MPC1 OXA-48 KP1086 [21] | other results |
| --- | --- | --- | --- | --- | --- | --- | --- | --- | --- | --- | --- | --- | --- | --- | --- | --- | --- | --- | --- | --- | --- |
| O=C([O-])c1nccc2c1O[B-](O)(O)CC2.[Na+].[Na+] [Compound 6, DISODIUM; 4,4-DIHYDROXY-5-OXA-8-AZA-4-BORANUIDABICYCLO[4.4.0]DECA-1(6),7,9-TRIENE-7-CARBOXYLATE] | X (key: X = MPC@4 ≤ 5 μg/mL; Y = 5 μg/mL < MPC@4 ≤ 20 μg/mL; Z = MPC@4 > 20 μg/mL) | Y (Y = 5 μg/mL < MPC@4 ≤ 20 μg/mL) | X (X = MPC@1 ≤ 5 μg/mL) | X (X = MPC@1 ≤ 5 μg/mL) | Y (key: X = MPC@4 ≤ 5 μg/mL; Y = 5 μg/mL < MPC@4 ≤ 20 μg/mL; Z = MPC@4 > 20 μg/mL) | X (key: X = MPC@4 ≤ 5 μg/mL; Y = 5 μg/mL < MPC@4 ≤ 20 μg/mL; Z = MPC@4 > 20 μg/mL) | 0.3 | X (X = MPC@4 ≤ 5 μg/mL) | X (X = MPC@4 ≤ 5 μg/mL) | X (X = MPC@4 ≤ 5 μg/mL) | 5 | X (key: X = Ki ≤ 0.1 μM; Y = 0.1 μM < Ki ≤ 1 μM; Z = Ki > 1 μM) | < 100 | X (key: X = Ki ≤ 0.1 μM; Y = 0.1 μM < Ki ≤ 1 μM; Z = Ki > 1 μM) | X (key: X = Ki ≤ 0.1 μM; Y = 0.1 μM < Ki ≤ 1 μM; Z = Ki > 1 μM) | < 100 | X (key: X = Ki ≤ 0.1 μM; Y = 0.1 μM < Ki ≤ 1 μM; Z = Ki > 1 μM) | X (key: X = MPC@4 ≤ 5 μg/mL; Y = 5 μg/mL < MPC@4 ≤ 20 μg/mL; Z = MPC@4 > 20 μg/mL) | X (key: X = MPC@1 ≤ 5 μg/mL; Y = 5 μg/mL < MPC@1 ≤ 20 μg/mL; Z = MPC@1 > 20 μg/mL) | X (X = MPC@1 ≤ 5 μg/mL) | Ki [12]: < 100 nM |
| O=C([O-])c1c(F)ccc2c1O[B-](O)(O)CC2.[Na+].[Na+] [Compound 8, DISODIUM; 8-FLUORO-4,4-DIHYDROXY-5-OXA-4-BORANUIDABICYCLO[4.4.0]DECA-1(6),7,9-TRIENE-7-CARBOXYLATE] | X (key: X = MPC@4 ≤ 5 μg/mL; Y = 5 μg/mL < MPC@4 ≤ 20 μg/mL; Z = MPC@4 > 20 μg/mL) | X (X = MPC@4 ≤ 5 μg/mL) | X (X = MPC@1 ≤ 5 μg/mL) | X (X = MPC@1 ≤ 5 μg/mL) | X (key: X = MPC@4 ≤ 5 μg/mL; Y = 5 μg/mL < MPC@4 ≤ 20 μg/mL; Z = MPC@4 > 20 μg/mL) | X (key: X = MPC@4 ≤ 5 μg/mL; Y = 5 μg/mL < MPC@4 ≤ 20 μg/mL; Z = MPC@4 > 20 μg/mL) | 0.6 | X (X = MPC@4 ≤ 5 μg/mL) | X (X = MPC@4 ≤ 5 μg/mL) | X (X = MPC@4 ≤ 5 μg/mL) | 5 | X (key: X = Ki ≤ 0.1 μM; Y = 0.1 μM < Ki ≤ 1 μM; Z = Ki > 1 μM) | < 100 | X (key: X = Ki ≤ 0.1 μM; Y = 0.1 μM < Ki ≤ 1 μM; Z = Ki > 1 μM) | X (key: X = Ki ≤ 0.1 μM; Y = 0.1 μM < Ki ≤ 1 μM; Z = Ki > 1 μM) | < 100 | X (key: X = Ki ≤ 0.1 μM; Y = 0.1 μM < Ki ≤ 1 μM; Z = Ki > 1 μM) | X (key: X = MPC@4 ≤ 5 μg/mL; Y = 5 μg/mL < MPC@4 ≤ 20 μg/mL; Z = MPC@4 > 20 μg/mL) | X (key: X = MPC@1 ≤ 5 μg/mL; Y = 5 μg/mL < MPC@1 ≤ 20 μg/mL; Z = MPC@1 > 20 μg/mL) | X (X = MPC@1 ≤ 5 μg/mL) |  |
